As usually defined, the MIC is the smallest concentration in the dilution series that meets the test's criterion for growth inhibition.

Holding throughout (format): functional
Assay [1] deals with Mycobacterium tuberculosis. Nature of the assay: Potency index, ratio of MIC for LVFX to MIC for test compound for antitubercular activity against rifampicin-resistant Mycobacterium tuberculosis after 21 days by two fold agar dilution method. Background: In agar dilution the substance is mixed into plates at graded concentrations.
Assay [2] relates to Mycobacterium tuberculosis. Nature of the assay: Potency index, ratio of MIC for isoniazid to MIC for test compound for antitubercular activity against rifampicin-resistant Mycobacterium tuberculosis after 21 days by two fold agar dilution method.
The subject of assay [3] is Mycobacterium tuberculosis. Nature of the assay: Antitubercular activity against rifampicin-resistant Mycobacterium tuberculosis after 21 days by two fold agar dilution method. To be noted: 504 h.
For assay [4], the system named is Mycobacterium tuberculosis. Put plainly: Potency index, ratio of MIC for rifampicin to MIC for test compound for antitubercular activity against rifampicin-resistant Mycobacterium tuberculosis after 21 days by two fold agar dilution method.
For assay [5], the system named is Mycobacterium tuberculosis. Put plainly: Potency index, ratio of MIC for GTFX to MIC for test compound for antitubercular activity against rifampicin-resistant Mycobacterium tuberculosis after 21 days by two fold agar dilution method.
In assay [6] the test system is Mycobacterium tuberculosis. Nature of the assay: Antibacterial activity against multidrug resistant Mycobacterium tuberculosis ATTC 27294 by Alamar Blue assay. On the technique in general: The colour change of resazurin is a common sign of viable cells or microbes.
The subject of assay [7] is Mycobacterium tuberculosis. Put plainly: Antibacterial activity against multidrug resistant Mycobacterium tuberculosis after 7 days by two fold dilution assay. To be noted: 168 h.

In brackets after ≈: the same amount, converted by molar mass. A value given as a limit tells only on which side of the number the result lay.

For `C[C@H]1COc2c(N3C[C@H]4CCCN[C@H]4C3)c(F)cc3c(=O)c(C(=O)O)cn1c23`, the Ratio entry in assay [1], in assay [2], in assay [4] and in assay [5] was “>=2.7 - 250” each time. In assay [3], this compound came in with an MIC of 0.2 to 1.7 µg/mL (≈ 0.516 to 4.39 µM). In turn, `O=C(O)c1cn(C2CC2)c2cc(N3CCNCC3)c(F)cc2c1=O` [CIPROFLOXACIN] registered an MIC in assay [6] of 0.1 to 0.6 µg/mL (≈ 0.302 to 1.81 µM).

For `COc1c(N2CCNC(C)C2)c(F)cc2c(=O)c(C(=O)O)cn(C3CC3)c12` (stereo not given) [GATIFLOXACIN], in assay [6], the MIC is 0.1 to 0.6 µg/mL (≈ 0.266 to 1.6 µM). Compound `NNC(=O)c1ccncc1` [ISONIAZID] showed an MIC in assay [7] greater than 128 µg/mL. `COc1c(N2C[C@@H]3CCCN[C@@H]3C2)c(F)cc2c(=O)c(C(=O)O)cn(C3CC3)c12` [MOXIFLOXACIN]: the minimal inhibitory concentration (MIC) in assay [6] was 0.1 to 0.6 µg/mL (≈ 0.249 to 1.49 µM). `CO[C@H]1/C=C/O[C@@]2(C)Oc3c(C)c(O)c4c(O)c(c(/C=N/N5CCN(C)CC5)c(O)c4c3C2=O)NC(=O)/C(C)=C\C=C\[C@H](C)[C@H](O)[C@@H](C)[C@@H](O)[C@@H](C)[C@H](OC(C)=O)[C@@H]1C` [RIFAMPIN] registered a minimum inhibitory concentration (MIC) in assay [7] of 32 µg/mL (≈ 38.9 µM).

(Values after ChEMBL document CHEMBL4229334, “Fluoroquinolone derivatives and their anti-tubercular activities” (Eur J Med Chem, 2018).)
